PMC9230136 (Pharmaceutics, 2022)

Experiments:
Jurkat = test: Antiproliferative assay (resazurin, 72 h); assay type: cell-based, human; settings: mean ± SE, 72 h
Experimental: (§1) Colon adenocarcinoma (HT-29) and T-cell leukemia (Jurkat) cells were grown in RPMI-1640 medium (Gibco, Milano, Italy). Promyelocytic leukemia cells (HL-60), non-small cell lung carcinoma (A549), cervix carcinoma (HeLa) and breast adenocarcinoma (MDA-MB-231) cells were grown in DMEM medium (Gibco, Milano, Italy). Both media were supplemented with 115 units/mL of penicillin G (Gibco, Milano, Italy), 115 μg/mL of streptomycin (Invitrogen, Milano, Italy) and 10% fetal bovine serum (Invitrogen, Milano, Italy). All the cell lines used were purchased from the American Type Culture Collection (ATCC, Manassas, VA, USA). Stock solutions (10 mM) of the compounds were obtained by dissolving them in DMSO.
(§2) The cells were seeded in 96-well plates at the appropriate density for each cell line. After 24 h, the cells were treated by performing serial 5-fold dilutions of the tested compounds starting from a concentration of 10 μM. All experimental conditions were tested in triplicate for statistical analysis. The plates were incubated for 72 h at 37 °C in a humidified 5% CO2 atmosphere. At the end of the incubation period, 10 μL of 100 μg/mL resazurin solution was added to each well; then, the plate was re-incubated for 3–4 h. The fluorescence of the wells in each plate was monitored using a Spark 10 M spectrophotometer (Tecan Group Ltd., Mannedorf, Switzerland) with a 535 nm excitation wavelength and a 600 nm emission wavelength.

HT-29 = test: Antiproliferative assay (resazurin, 72 h); assay type: cell-based, human; settings: mean ± SE, 72 h
Experimental: as §1, §2

HeLa = test: Antiproliferative assay (resazurin, 72 h); assay type: cell-based, human
Experimental: as §1, §2

MDA-MB-231 = test: Antiproliferative assay (resazurin, 72 h); assay type: cell-based, human; settings: for IC50: mean ± SE, 72 h
Experimental: as §1, §2

A549 = test: Antiproliferative assay (resazurin, 72 h); assay type: cell-based, human
Experimental: as §1, §2

[1] = Homo sapiens, HeLa, Table 1, mean ± SE
[2] = Homo sapiens, MDA-MB-231, Table 1
[3] = Homo sapiens, A549, Table 1, mean ± SE

Row | SMILES | IC50 (Jurkat; Homo sapiens, Jurkat, Table 1) | IC50 (HT-29; Homo sapiens, HT-29, Table 1) | IC50 (HeLa; [1]) | IC50 (MDA-MB-231; [2]) | IC50 (A549; [3]) | melting point | fold more active than 7i (MDA-MB-231; MDA-MB-231 cells) | IC50 (Jurkat; Table 2) | IC50 (HT-29; Table 2) | IC50 (HeLa; Table 2, mean ± SE) | IC50 (MDA-MB-231; Table 2) | IC50 (A549; Table 2, mean ± SE)
1 | COc1cc(Nc2cc(C)nc3nc(NCCc4ccc(F)cc4)nn23)cc(OC)c1OC [Compound 7aa, N^2-(4-Fluorophenethyl)-5-methyl-N^7-(3,4,5-trimethoxyphenyl)-[1,2,4]triazolo [1,5-a]pyrimidine-2,7-diamine] | 9610 ± 890 nM | 2830 ± 220 nM | 2500 ± 270 nM | > 10000 nM | > 10000 nM | 150 to 152 °C |  |  |  |  |  | 
2 | COc1cc(Nc2cc(C)nc3nc(NCCc4ccc(Cl)cc4)nn23)cc(OC)c1OC [Compound 7ab, N^2-(4-Chlorophenethyl)-5-methyl-N^7-(3,4,5-trimethoxyphenyl)-[1,2,4]triazolo [1,5-a]pyrimidine-2,7-diamine] | 5940 ± 500 nM | > 10000 nM | 5810 ± 480 nM | > 10000 nM | > 10000 nM | 196 to 198 °C |  |  |  |  |  | 
3 | COc1ccc(CCNc2nc3nc(C)cc(Nc4cc(OC)c(OC)c(OC)c4)n3n2)cc1 [Compound 7ac, N^2-(4-Methoxyphenethyl)-5-methyl-N^7-(3,4,5-trimethoxyphenyl)-[1,2,4]triazolo [1,5-a]pyrimidine-2,7-diamine] | 9590 ± 1170 nM | 6880 ± 490 nM | 5050 ± 630 nM | 1650 ± 190 nM | 8880 ± 880 nM | 214 to 216 °C |  |  |  |  |  | 
4 | COc1cc(Nc2cc(C)nc3nc(Nc4ccccc4)nn23)cc(OC)c1OC [Compound 7d, 5-Methyl-N2-phenyl-N7-(3,4,5-trimethoxyphenyl)-[1,2,4]triazolo [1,5-a]pyrimidine-2,7-diamine] | 590 ± 10 nM | 820 ± 70 nM | 520 ± 60 nM | 1430 ± 140 nM | 2300 ± 120 nM | 241 °C |  |  |  |  |  | 
5 | COc1cc(Nc2cc(C)nc3nc(Nc4ccc(F)cc4)nn23)cc(OC)c1OC [Compound 7e, N2-(4-Fluorophenyl)-5-methyl-N7-(3,4,5-trimethoxyphenyl)-[1,2,4]triazolo [1,5-a]pyrimidine-2,7-diamine] | 820 ± 1 nM | 690 ± 60 nM | 390 ± 20 nM | 710 ± 70 nM | 1020 ± 80 nM | 247 °C |  |  |  |  |  | 
6 | COc1cc(Nc2cc(C)nc3nc(Nc4ccc(C)cc4)nn23)cc(OC)c1OC [Compound 7g, 5-Methyl-N2-(p-tolyl)-N7-(3,4,5-trimethoxyphenyl)-[1,2,4]triazolo [1,5-a]pyrimidine-2,7-diamine] | 850 ± 20 nM | 940 ± 110 nM | 500 ± 40 nM | 1510 ± 140 nM | 1550 ± 190 nM | 234 °C |  |  |  |  |  | 
7 | COc1ccc(Nc2nc3nc(C)cc(Nc4cc(OC)c(OC)c(OC)c4)n3n2)cc1 [Compound 7h, N2-(4-Methoxyphenyl)-5-methyl-N7-(3,4,5-trimethoxyphenyl)-[1,2,4]triazolo [1,5-a]pyrimidine-2,7-diamine] | 1010 ± 130 nM | 920 ± 90 nM | 520 ± 30 nM | 1170 ± 130 nM | 3760 ± 140 nM | 215 °C |  |  |  |  |  | 
8 | COc1cc(Nc2cc(C)nc3nc(NCc4ccccc4)nn23)cc(OC)c1OC [Compound 7i, N^2-Benzyl-5-methyl-N^7-(3,4,5-trimethoxyphenyl)-[1,2,4]triazolo [1,5-a]pyrimidine-2,7-diamine] | 4400 ± 380 nM | 3530 ± 140 nM | 3200 ± 240 nM | 2710 ± 310 nM | 3750 ± 260 nM | 173 to 175 °C |  |  |  |  |  | 
9 | COc1cc(Nc2cc(C)nc3nc(NCc4ccncc4)nn23)cc(OC)c1OC [Compound 7j, 5-Methyl-N^2-(pyridin-4-ylmethyl)-N^7-(3,4,5-trimethoxyphenyl)-[1,2,4]triazolo [1,5-a]pyrimidine-2,7-diamine] | 9640 ± 800 nM | 2530 ± 250 nM | 3010 ± 300 nM | 59 ± 10 nM | > 10000 nM | 184 to 186 °C | 46 fold |  |  |  |  | 
10 | COc1cc(Nc2cc(C)nc3nc(NCc4cccnc4)nn23)cc(OC)c1OC [Compound 7k, 5-Methyl-N^2-(pyridin-3-ylmethyl)-N^7-(3,4,5-trimethoxyphenyl)-[1,2,4]triazolo [1,5-a]pyrimidine-2,7-diamine] | 6850 ± 630 nM | 3570 ± 480 nM | 2980 ± 320 nM | 560 ± 67 nM | 5280 ± 650 nM | 178 to 180 °C |  |  |  |  |  | 
11 | COc1cc(Nc2cc(C)nc3nc(NCc4cccc(F)c4)nn23)cc(OC)c1OC [Compound 7m, N^2-(3-Fluorobenzyl)-5-methyl-N^7-(3,4,5-trimethoxyphenyl)-[1,2,4]triazolo [1,5-a]pyrimidine-2,7-diamine] | 5550 ± 480 nM | 1530 ± 160 nM | 930 ± 20 nM | 77 ± 10 nM | 2180 ± 310 nM | 176 to 178 °C |  |  |  |  |  | 
12 | COc1cc(Nc2cc(C)nc3nc(NCc4cccc(C)c4)nn23)cc(OC)c1OC [Compound 7q, 5-Methyl-N^2-(3-methylbenzyl)-N^7-(3,4,5-trimethoxyphenyl)-[1,2,4]triazolo [1,5-a]pyrimidine-2,7-diamine] | 7020 ± 620 nM | 3460 ± 370 nM | 1610 ± 130 nM | 1680 ± 180 nM | 3880 ± 280 nM | 162 to 164 °C |  |  |  |  |  | 
13 | COc1cc(Nc2cc(C)nc3nc(NCc4ccccc4C)nn23)cc(OC)c1OC [Compound 7r, 5-Methyl-N^2-(2-methylbenzyl)-N^7-(3,4,5-trimethoxyphenyl)-[1,2,4]triazolo [1,5-a]pyrimidine-2,7-diamine] | 4440 ± 470 nM | > 10000 nM | > 10000 nM | 2990 ± 180 nM | 1920 ± 90 nM | 182 to 184 °C |  |  |  |  |  | 
14 | COc1cccc(CNc2nc3nc(C)cc(Nc4cc(OC)c(OC)c(OC)c4)n3n2)c1 [Compound 7t, N^2-(3-Methoxybenzyl)-5-methyl-N^7-(3,4,5-trimethoxyphenyl)-[1,2,4]triazolo [1,5-a]pyrimidine-2,7-diamine] | 1650 ± 110 nM | 1040 ± 80 nM | 880 ± 90 nM | 1780 ± 150 nM | 1650 ± 140 nM | 150 to 152 °C |  |  |  |  |  | 
15 | COc1ccccc1CNc1nc2nc(C)cc(Nc3cc(OC)c(OC)c(OC)c3)n2n1 [Compound 7u, N^2-(2-Methoxybenzyl)-5-methyl-N^7-(3,4,5-trimethoxyphenyl)-[1,2,4]triazolo [1,5-a]pyrimidine-2,7-diamine] | > 10000 nM | > 10000 nM | > 10000 nM | 4400 ± 260 nM | > 10000 nM | 208 to 210 °C |  |  |  |  |  | 
16 | COc1ccc(CNc2nc3nc(C)cc(Nc4cc(OC)c(OC)c(OC)c4)n3n2)cc1OC [Compound 7v, N^2-(3,4-Dimethoxybenzyl)-5-methyl-N^7-(3,4,5-trimethoxyphenyl)-[1,2,4]triazolo [1,5-a]pyrimidine-2,7-diamine] | 1220 ± 90 nM | > 10000 nM | 560 ± 70 nM | 1220 ± 150 nM | 1000 ± 90 nM | 194 to 196 °C |  |  |  |  |  | 
17 | COc1cc(Nc2cc(C)nc3nc(NCc4ccc(C#N)cc4)nn23)cc(OC)c1OC [Compound 7x, 4-(((5-Methyl-7-((3,4,5-trimethoxyphenyl)amino)-[1,2,4]triazolo [1,5-a]pyrimidin-2-yl)amino)methyl)benzonitrile] | > 10000 nM | > 10000 nM | 9010 ± 210 nM | 1550 ± 110 nM | > 10000 nM | 178 to 180 °C |  |  |  |  |  | 
18 | Cc1cc(Nc2cccc(Cl)c2)n2nc(NCCCc3ccccc3)nc2n1 [Compound 8t] |  |  |  |  |  |  |  | 140 ± 70 nM | 380 ± 30 nM | 153 ± 10 nM | 1320 ± 870 nM | 260 ± 70 nM
